Where “and” joins values, the source holds several entries; their conditions need not be identical. Equal entries are not always repeated. Where two headings read alike, the source gives them in different places.
How the values were obtained:
[1] = test system: mice; assay: Rotarod test; format: in vivo, mouse; details: for dose showing locomotor deficits or sedation, rotarod: i.p.
[2] = target: panel of 320 non-olfactory GPCRs (Homo sapiens, UniProt O15218); format: cell-based
[3] = target: panel of 320 non-olfactory GPCRs (Homo sapiens, UniProt P61073); format: cell-based
Sequence of panel of 320 non-olfactory GPCRs (Homo sapiens, UniProt P61073) (P61073 whole entry): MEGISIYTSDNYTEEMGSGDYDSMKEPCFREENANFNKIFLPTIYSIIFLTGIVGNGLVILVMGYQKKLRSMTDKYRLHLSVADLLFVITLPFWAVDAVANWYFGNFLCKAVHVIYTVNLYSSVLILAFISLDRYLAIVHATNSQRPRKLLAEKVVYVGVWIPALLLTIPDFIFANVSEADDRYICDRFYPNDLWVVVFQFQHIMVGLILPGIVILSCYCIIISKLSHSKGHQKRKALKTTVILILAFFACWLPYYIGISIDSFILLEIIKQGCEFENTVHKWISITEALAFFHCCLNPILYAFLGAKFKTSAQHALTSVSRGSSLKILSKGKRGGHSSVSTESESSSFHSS

[4] = target: panel of 320 non-olfactory GPCRs (Homo sapiens, UniProt O00222); format: cell-based
[5] = target: panel of 320 non-olfactory GPCRs (Homo sapiens, UniProt P35348); format: cell-based
[6] = target: panel of 320 non-olfactory GPCRs (Homo sapiens, UniProt Q9BZJ8); format: cell-based
[7] = target: panel of 320 non-olfactory GPCRs (Homo sapiens, UniProt P0DMS8); format: cell-based
[8] = target: panel of 320 non-olfactory GPCRs (Homo sapiens, UniProt Q13324); format: cell-based
Sequence of panel of 320 non-olfactory GPCRs (Homo sapiens, UniProt Q13324) (Q13324 whole entry): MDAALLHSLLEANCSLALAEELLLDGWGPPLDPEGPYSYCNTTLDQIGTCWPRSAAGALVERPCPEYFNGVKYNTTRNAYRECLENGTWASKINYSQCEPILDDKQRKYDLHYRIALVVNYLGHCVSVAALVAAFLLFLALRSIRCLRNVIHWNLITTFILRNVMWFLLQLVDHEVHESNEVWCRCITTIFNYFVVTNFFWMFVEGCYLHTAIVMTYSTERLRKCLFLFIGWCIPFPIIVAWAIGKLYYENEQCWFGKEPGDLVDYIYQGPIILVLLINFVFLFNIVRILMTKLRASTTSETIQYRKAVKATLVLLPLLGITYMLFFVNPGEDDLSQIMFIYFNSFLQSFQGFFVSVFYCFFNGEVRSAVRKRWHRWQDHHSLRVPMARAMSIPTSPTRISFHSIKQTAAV

[9] = target: panel of 320 non-olfactory GPCRs (Homo sapiens, UniProt O43194); format: cell-based
Sequence of panel of 320 non-olfactory GPCRs (Homo sapiens, UniProt O43194) (O43194 whole entry): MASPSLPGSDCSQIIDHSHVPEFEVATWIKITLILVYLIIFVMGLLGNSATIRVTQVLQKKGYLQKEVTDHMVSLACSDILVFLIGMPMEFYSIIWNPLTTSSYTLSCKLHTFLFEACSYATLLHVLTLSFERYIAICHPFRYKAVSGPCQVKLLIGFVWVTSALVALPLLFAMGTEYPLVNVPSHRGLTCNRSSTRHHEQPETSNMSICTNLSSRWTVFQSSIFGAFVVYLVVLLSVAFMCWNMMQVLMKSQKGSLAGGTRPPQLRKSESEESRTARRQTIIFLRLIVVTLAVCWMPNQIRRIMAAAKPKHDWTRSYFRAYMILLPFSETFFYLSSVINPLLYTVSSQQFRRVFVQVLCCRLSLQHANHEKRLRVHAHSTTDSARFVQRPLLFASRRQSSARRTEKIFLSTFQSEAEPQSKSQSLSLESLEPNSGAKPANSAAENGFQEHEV

[10] = target: panel of 320 non-olfactory GPCRs (Homo sapiens, UniProt P51810); format: cell-based
[11] = target: panel of 320 non-olfactory GPCRs (Homo sapiens, UniProt P29275); format: cell-based
[12] = target: panel of 320 non-olfactory GPCRs (Homo sapiens, UniProt Q6U736); format: cell-based
[13] = target: panel of 320 non-olfactory GPCRs (Homo sapiens, UniProt P30542); format: cell-based
Sequence of panel of 320 non-olfactory GPCRs (Homo sapiens, UniProt P30542) (P30542 whole entry): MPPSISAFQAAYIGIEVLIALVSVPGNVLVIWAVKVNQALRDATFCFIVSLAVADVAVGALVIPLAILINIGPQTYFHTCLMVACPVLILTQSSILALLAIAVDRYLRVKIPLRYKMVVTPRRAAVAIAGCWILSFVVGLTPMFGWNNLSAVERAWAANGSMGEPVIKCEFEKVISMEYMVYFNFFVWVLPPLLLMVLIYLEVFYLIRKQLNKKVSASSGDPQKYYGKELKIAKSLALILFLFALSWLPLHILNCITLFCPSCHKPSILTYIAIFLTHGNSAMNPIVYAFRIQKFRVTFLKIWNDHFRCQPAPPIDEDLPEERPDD

[14] = target: panel of 320 non-olfactory GPCRs (Homo sapiens, UniProt Q8NFJ6); format: cell-based
Sequence of panel of 320 non-olfactory GPCRs (Homo sapiens, UniProt Q8NFJ6) (Q8NFJ6 whole entry): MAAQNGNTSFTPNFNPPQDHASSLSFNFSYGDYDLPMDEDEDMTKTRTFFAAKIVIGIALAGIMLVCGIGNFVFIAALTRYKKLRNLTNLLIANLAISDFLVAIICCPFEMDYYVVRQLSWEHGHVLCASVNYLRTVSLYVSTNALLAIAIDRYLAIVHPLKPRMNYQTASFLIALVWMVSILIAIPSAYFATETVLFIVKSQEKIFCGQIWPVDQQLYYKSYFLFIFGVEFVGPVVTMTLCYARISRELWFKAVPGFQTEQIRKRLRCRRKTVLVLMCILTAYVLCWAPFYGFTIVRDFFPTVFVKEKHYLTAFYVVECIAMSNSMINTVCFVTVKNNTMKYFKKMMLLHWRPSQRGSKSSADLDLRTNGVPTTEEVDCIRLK

[15] = target: panel of 320 non-olfactory GPCRs (Homo sapiens, UniProt P35368); format: cell-based
Sequence of panel of 320 non-olfactory GPCRs (Homo sapiens, UniProt P35368) (P35368 whole entry): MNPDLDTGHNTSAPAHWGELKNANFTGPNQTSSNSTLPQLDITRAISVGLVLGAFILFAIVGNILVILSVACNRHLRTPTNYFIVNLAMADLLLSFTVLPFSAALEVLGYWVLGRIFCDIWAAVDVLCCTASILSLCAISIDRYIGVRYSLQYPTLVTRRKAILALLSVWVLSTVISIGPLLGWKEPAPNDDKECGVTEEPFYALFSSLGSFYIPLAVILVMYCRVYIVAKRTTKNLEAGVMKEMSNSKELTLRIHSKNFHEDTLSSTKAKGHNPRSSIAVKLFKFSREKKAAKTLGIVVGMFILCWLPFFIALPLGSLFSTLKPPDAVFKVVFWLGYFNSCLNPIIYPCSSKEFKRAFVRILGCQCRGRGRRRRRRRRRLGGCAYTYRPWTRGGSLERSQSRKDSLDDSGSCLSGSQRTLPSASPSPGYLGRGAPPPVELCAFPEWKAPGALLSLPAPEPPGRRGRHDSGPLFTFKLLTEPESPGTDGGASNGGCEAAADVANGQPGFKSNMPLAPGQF

[16] = target: panel of 320 non-olfactory GPCRs (Homo sapiens, UniProt Q96RI0); format: cell-based
Sequence of panel of 320 non-olfactory GPCRs (Homo sapiens, UniProt Q96RI0) (Q96RI0 18-385): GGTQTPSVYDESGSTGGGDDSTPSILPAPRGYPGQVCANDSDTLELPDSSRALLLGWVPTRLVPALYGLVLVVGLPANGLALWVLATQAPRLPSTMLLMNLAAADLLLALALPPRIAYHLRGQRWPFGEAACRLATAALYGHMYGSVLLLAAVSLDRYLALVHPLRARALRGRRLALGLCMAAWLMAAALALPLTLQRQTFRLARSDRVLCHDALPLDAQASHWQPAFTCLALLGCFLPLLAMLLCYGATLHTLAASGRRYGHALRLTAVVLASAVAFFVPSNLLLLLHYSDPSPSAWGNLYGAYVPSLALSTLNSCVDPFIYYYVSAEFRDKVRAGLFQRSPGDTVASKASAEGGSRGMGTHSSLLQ

[17] = target: panel of 320 non-olfactory GPCRs (Homo sapiens, UniProt P28335, I156V/I160V); format: cell-based
[18] = target: panel of 320 non-olfactory GPCRs (Homo sapiens, UniProt Q99679); format: cell-based
[19] = target: panel of 320 non-olfactory GPCRs (Homo sapiens, UniProt P35367); format: cell-based
[20] = target: panel of 320 non-olfactory GPCRs (Homo sapiens, UniProt Q15743); format: cell-based
[21] = target: panel of 320 non-olfactory GPCRs (Homo sapiens, UniProt Q7Z7M1); format: cell-based
Sequence of panel of 320 non-olfactory GPCRs (Homo sapiens, UniProt Q7Z7M1) (Q7Z7M1 whole entry): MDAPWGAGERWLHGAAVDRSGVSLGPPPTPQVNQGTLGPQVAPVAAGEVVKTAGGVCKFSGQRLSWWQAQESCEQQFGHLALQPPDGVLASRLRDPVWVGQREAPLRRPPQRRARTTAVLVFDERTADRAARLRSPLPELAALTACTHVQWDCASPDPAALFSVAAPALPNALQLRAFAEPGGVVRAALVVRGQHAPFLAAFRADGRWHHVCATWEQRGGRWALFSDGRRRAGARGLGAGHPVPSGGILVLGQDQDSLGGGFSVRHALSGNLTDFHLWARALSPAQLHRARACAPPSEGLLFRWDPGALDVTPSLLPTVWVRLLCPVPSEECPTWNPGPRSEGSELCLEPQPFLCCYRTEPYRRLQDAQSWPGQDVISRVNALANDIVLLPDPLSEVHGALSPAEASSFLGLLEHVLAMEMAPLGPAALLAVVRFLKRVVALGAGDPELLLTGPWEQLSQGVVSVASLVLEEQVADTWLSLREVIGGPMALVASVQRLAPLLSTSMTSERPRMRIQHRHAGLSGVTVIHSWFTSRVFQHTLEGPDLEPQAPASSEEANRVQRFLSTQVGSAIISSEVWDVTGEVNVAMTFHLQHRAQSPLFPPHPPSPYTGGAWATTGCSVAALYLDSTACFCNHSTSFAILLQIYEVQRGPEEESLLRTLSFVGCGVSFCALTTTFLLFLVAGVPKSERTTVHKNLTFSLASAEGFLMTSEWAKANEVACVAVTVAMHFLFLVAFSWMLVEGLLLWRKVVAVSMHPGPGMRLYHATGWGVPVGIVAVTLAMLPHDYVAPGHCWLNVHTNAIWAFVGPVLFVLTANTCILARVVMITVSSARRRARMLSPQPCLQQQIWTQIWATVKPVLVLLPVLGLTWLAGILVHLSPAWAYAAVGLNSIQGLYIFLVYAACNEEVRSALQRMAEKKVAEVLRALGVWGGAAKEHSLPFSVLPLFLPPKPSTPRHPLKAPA

[22] = target: panel of 320 non-olfactory GPCRs (Homo sapiens, UniProt P35408); format: cell-based
Sequence of panel of 320 non-olfactory GPCRs (Homo sapiens, UniProt P35408) (P35408 whole entry): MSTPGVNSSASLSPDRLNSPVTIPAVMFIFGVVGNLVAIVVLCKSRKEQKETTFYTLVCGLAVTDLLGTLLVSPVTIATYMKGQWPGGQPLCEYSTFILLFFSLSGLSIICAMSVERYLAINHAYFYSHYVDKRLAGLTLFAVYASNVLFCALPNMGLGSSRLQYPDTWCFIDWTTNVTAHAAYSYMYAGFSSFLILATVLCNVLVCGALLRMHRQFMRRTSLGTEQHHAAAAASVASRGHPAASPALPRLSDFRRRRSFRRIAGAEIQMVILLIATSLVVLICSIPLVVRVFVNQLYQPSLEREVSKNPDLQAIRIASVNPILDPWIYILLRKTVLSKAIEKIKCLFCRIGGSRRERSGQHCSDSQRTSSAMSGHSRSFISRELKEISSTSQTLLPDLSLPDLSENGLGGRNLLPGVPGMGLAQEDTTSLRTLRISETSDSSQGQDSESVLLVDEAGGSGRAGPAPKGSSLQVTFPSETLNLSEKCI

[23] = target: panel of 320 non-olfactory GPCRs (Homo sapiens, UniProt P47901); format: cell-based
[24] = test system: mice; assay: Formalin test; format: in vivo, mouse; details: for formalin test response per time bin (Figure5c), individual animals: 0.2 mg/kg
Description: Thirty min after an i.p. injection of the compounds, mice received an intraplantar injection of a 20μL solution containing 2% formalin (Acros Organics) and we recorded the time mice spent licking/biting/guarding (nocifensive behaviors) the injected hindpaw over the next 60 min.

[25] = test system: mice; assay: Open field test; format: in vivo, mouse
Description: Thirty min after i.p. injection, mice were placed in the center of a round open-field (2 feet diameter) and their exploratory behavior recorded over the next 15 min. Distance traveled was used to represent open field behavior.

[26] = mouse plasma, 1.0 µM
Description: Compounds were added to one chamber and the same volume of PBS buffer pH 7.4 to the other chamber. A standard solution was created by mixing an aliquot of spiked plasma with blank buffer without dialysis. […] The stability samples were immediately diluted with acetonitrile and stored at 4 °C until LC-MS/MS analysis. All samples were diluted 5-fold with 90% acetonitrile with internal standard with subsequent plasma proteins sedimentation by centrifuging at 5,796 g for 5 min. Supernatants were analyzed using HPLC system coupled with tandem mass spectrometer. The percentage of plasma protein-bound compound, recovery and stability were calculated using following equations:7 ProteinBinding=1−arearatioinbuffer/arearatioinplasma×100 8 Recovery=arearatioinbuffer+arearatioinplasma/arearatioinstabilitysample×100 9 Stability=arearatioinrecoverysample/arearatioinstabilitysample×100

[27] = relative to 100 at 0 min
Description: (§1) Microsomal incubations were carried out in 96-well plates in 5 aliquots of 30 μL each (one for each time point). […] In the control reactions, the NADPH-cofactor system was substituted with phosphate buffer. […] Five time points over 40 min were analyzed. The reactions were stopped by adding 5 volumes of acetonitrile with internal standard to incubation aliquots, followed by protein sedimentation by centrifuging at 4869 g for 5 min. Each reaction was performed in duplicates. Supernatants were analyzed using the HPLC system coupled with a tandem mass spectrometer. The elimination constant (kel), half-life (T1/2), and intrinsic clearance (Clint) were determined in a plot of ln(AUC) versus time, using linear regression analysis.

[28] = in vitro; details: mouse, microsomes, pH 7.4
Description: as §1

[29] = test system: mice; assay: Hargreaves radiant heat test; format: in vivo, mouse; details: for Dose response, individual animals (FigS11a): test not printed on the sheet

Sequence of panel of 320 non-olfactory GPCRs (Homo sapiens, UniProt O15218) (O15218 whole entry): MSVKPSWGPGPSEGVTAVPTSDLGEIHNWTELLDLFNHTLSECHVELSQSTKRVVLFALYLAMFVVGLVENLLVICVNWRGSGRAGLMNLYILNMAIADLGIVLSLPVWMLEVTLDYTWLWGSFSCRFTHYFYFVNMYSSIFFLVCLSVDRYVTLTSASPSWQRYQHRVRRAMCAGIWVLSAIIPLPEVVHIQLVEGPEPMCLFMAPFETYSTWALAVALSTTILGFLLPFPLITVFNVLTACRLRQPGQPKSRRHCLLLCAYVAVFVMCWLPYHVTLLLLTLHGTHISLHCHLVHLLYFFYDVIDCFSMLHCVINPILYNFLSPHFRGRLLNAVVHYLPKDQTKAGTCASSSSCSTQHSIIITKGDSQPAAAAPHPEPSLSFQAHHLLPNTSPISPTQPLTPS

**Q.** For Cc1cc(C(=O)NC(C)(c2ccco2)c2ccco2)nn1-c1cccc(C(F)(F)F)c1 [‘4936], which “rotarod performance (Figure6b), individual animals” value (“rotarod performance (Figure6b)” for short) ([1]; Dose 0.2 mg/kg) is on record?
**A.** 300 and 283

**Q.** And the “rotarod performance (Figure6b)” value ([1]; Dose 0.5 mg/kg)?
**A.** 300 and 234 and 278 and 166 and 268 and 275 and 273

**Q.** And the “rotarod performance (Figure6b)” value ([1]; Dose 1.0 mg/kg)?
**A.** 201 and 300 and 258 and 267 and 295 and 215 and 252 and 282 and 235

**Q.** What about the “rotarod performance (Figure6b)” value ([1]; Dose 2.0 mg/kg) of the same compound?
**A.** 298 and 90 and 300 and 163 and 260

**Q.** What about the “dose showing locomotor deficits or sedation, rotarod” value [1] of the same compound?
**A.** 2 mg/kg

**Q.** And the “Fold of Basal RLU” value [2]?
**A.** 1.7 fold and 1.9 fold and 1.4 fold and 2.5 fold

**Q.** And the “Fold of Basal RLU” value [3]?
**A.** 1 fold and 1.3 fold and 1.2 fold

**Q.** What about the “Fold of Basal RLU” value [4] of the same compound?
**A.** 0.3 and 0.6 and 0.4 and 0.5

**Q.** And the “Fold of Basal RLU” value [5]?
**A.** 0.6 and 0.7 and 1.1

**Q.** And the “Fold of Basal RLU” value [6]?
**A.** 0.9 and 0.8 and 1 and 1.1

**Q.** What about the “Fold of Basal RLU” value [7] of the same compound?
**A.** 0.7 fold and 1.1 fold

**Q.** And the “Fold of Basal RLU” value [8]?
**A.** 0.6 and 0.7

**Q.** And the “Fold of Basal RLU” value [9]?
**A.** 0.9 and 0.7 and 0.5

**Q.** What about the “Fold of Basal RLU” value [10] of the same compound?
**A.** 1 and 0.7 and 1.1

**Q.** What about the “Fold of Basal RLU” value [11] of the same compound?
**A.** 0.9 and 0.7 and 1 and 0.6

**Q.** And the “Fold of Basal RLU” value [12]?
**A.** 1.3 fold and 1.4 fold and 1.1 fold and 1.8 fold

**Q.** And the “Fold of Basal RLU” value [13]?
**A.** 6.4 fold and 5.8 fold and 6.3 fold and 7.4 fold

**Q.** What about the “Fold of Basal RLU” value [14] of the same compound?
**A.** 0.9 and 1.3 and 0.8

**Q.** And the “Fold of Basal RLU” value [15]?
**A.** 0.9 fold and 0.8 fold

**Q.** What about the “Fold of Basal RLU” value [16] of the same compound?
**A.** 1.2 and 1 and 0.8 and 0.9

**Q.** And the “Fold of Basal RLU” value [17]?
**A.** 0.7 and 0.4 and 0.8

**Q.** What about the “Fold of Basal RLU” value [18] of the same compound?
**A.** 2.5 and 1.9 and 1.6 and 2.2

**Q.** And the “Fold of Basal RLU” value [19]?
**A.** 0.9 fold and 1.1 fold and 1.2 fold and 1.5 fold

**Q.** And the “Fold of Basal RLU” value [20]?
**A.** 0.6 fold and 0.9 fold and 1 fold

**Q.** What about the “Fold of Basal RLU” value [21] of the same compound?
**A.** 0.9 and 0.6 and 1.1

**Q.** And the “Fold of Basal RLU” value [22]?
**A.** 1.2 fold and 0.9 fold and 1 fold and 1.3 fold

**Q.** And the “Fold of Basal RLU” value [23]?
**A.** 0.6 and 0.4 and 0.5

**Q.** Which results are given for COC(=O)[C@@](C)(NC(=O)c1cc(C)n(-c2cccc(C(F)(F)F)c2)n1)c1cccs1 [‘1350]?
**A.** effect on formalin nocifensive behaviors ([24]; 0.2 mg/kg i.p., 60 min): profoundly decreased the duration of both phase 1 and phase 2 nocifensive behaviors; formalin test response per time bin (Figure5c), individual animals ([24]; Time 0 min): 0; formalin test response per time bin (Figure5c), individual animals ([24]; Time 5 min): 47.9 and 64.7 and 87.7 and 92.8 and 88.1; formalin test response per time bin (Figure5c), individual animals ([24]; Time 10 min): 0 (4×) and 6.3; formalin test response per time bin (Figure5c), individual animals ([24]; Time 15 min): 0 (3×) and 1.5 and 2.3; formalin test response per time bin (Figure5c), individual animals ([24]; Time 20 min): 2.9 and 0 (3×) and 3.6; formalin test response per time bin (Figure5c), individual animals ([24]; Time 25 min): 1.9 and 13.6 and 0 (2×) and 21.9; formalin test response per time bin (Figure5c), individual animals ([24]; Time 30 min): 0 (2×) and 85 and 92.7 and 5.3; formalin test response per time bin (Figure5c), individual animals ([24]; Time 35 min): 1.8 and 59 and 0 (2×) and 91.5; formalin test response per time bin (Figure5c), individual animals ([24]; Time 40 min): 2.3 and 173.3 and 5.2 and 106.7 and 40.7; formalin test response per time bin (Figure5c), individual animals ([24]; Time 45 min): 3.9 and 181.8 and 5.2 and 10 and 11.7; formalin test response per time bin (Figure5c), individual animals ([24]; Time 50 min): 8.3 and 48.5 and 11.2 and 3.8 and 50.2; formalin test response per time bin (Figure5c), individual animals ([24]; Time 55 min): 40.3 and 35.4 and 0 (3×); formalin test response per time bin (Figure5c), individual animals ([24]; Time 60 min): 2.4 and 30.9 and 0 (3×); open field locomotion (Figure6a), individual animals ([25]; Dose 0.2 mg/kg): 12688.4 and 110206 and 39857.9 and 128163 and 83978.8; open field locomotion (Figure6a), individual animals ([25]; Dose 0.5 mg/kg): 61622.6 and 27571.5 and 19916.8 and 94738.4 and 50932.2; dose showing locomotor deficits, open field ([25]; i.p.): 0.2 mg/kg; Mean % of bound compound [26]: 94%; Stability ([26]; 5 h): 11%; Stability time course, Mean (FS10f) ([27]; Time 0 min): 100; Stability time course, Mean (FS10f) ([27]; Time 7 min): 13.0354; Stability time course, Mean (FS10f) ([27]; Time 15 min): 0.461; Stability time course, Mean (FS10f) ([27]; Time 25 min): 0.1608; Stability time course, Mean (FS10f) ([27]; Time 40 min): 0.1274; remaining at 40 min, 2 µM [28]: 100%; rotarod performance (Figure6b), individual animals ([1]; Dose 0.1 mg/kg): 275 and 300; rotarod performance (Figure6b), individual animals ([1]; Dose 0.2 mg/kg): 300 and 226 and 231 and 240 and 274 and 298 and 237 and 211; rotarod performance (Figure6b), individual animals ([1]; Dose 0.5 mg/kg): 123 and 300 and 128 and 153; dose showing locomotor deficits or sedation, rotarod [1]: 0.5 mg/kg; Dose response, individual animals (FigS11a) ([29]; Dose 0.05 mg/kg): 70.2102 and 59.9464 and 116.769 and 106.654 and 53.8477; Dose response, individual animals (FigS11a) ([29]; Dose 0.1 mg/kg): 178.501 and 115.43 and 147.263 and 156.486; Dose response, individual animals (FigS11a) ([29]; Dose 0.2 mg/kg): 166.452 and 178.501; lowest dose with significantly increased latency, Hargreaves ([29]; i.p., 30 min after injection): 0.1 mg/kg; Fold of Basal RLU [2]: 1.1 fold and 0.8 fold and 1.4 fold; Fold of Basal RLU [3]: 1.2 fold and 1.1 fold and 1.3 fold; Fold of Basal RLU [4]: 0.7 and 0.9 and 1.2 and 1.4; Fold of Basal RLU [5]: 1.1 and 0.9 and 1.3; Fold of Basal RLU [6]: 1 and 0.7 and 0.9 and 0.8; Fold of Basal RLU [7]: 1 fold and 0.9 fold and 1.2 fold; Fold of Basal RLU [8]: 0.8 and 0.9; Fold of Basal RLU [9]: 0.7 and 0.8 and 1; Fold of Basal RLU [10]: 1.2 and 0.9 and 0.8 and 1; Fold of Basal RLU [11]: 0.6 and 0.7 and 1.1; Fold of Basal RLU [12]: 2.3 fold and 1.9 fold; Fold of Basal RLU [13]: 1.2 fold and 1.7 fold and 1.6 fold and 2.1 fold; Fold of Basal RLU [14]: 0.9 and 0.7 and 0.8 and 1.1; Fold of Basal RLU [15]: 1 fold and 0.8 fold and 0.6 fold and 0.9 fold; Fold of Basal RLU [16]: 1.5 and 1.6 and 1; Fold of Basal RLU [17]: 0.4 and 0.8; Fold of Basal RLU [18]: 1 and 0.8 and 1.3; Fold of Basal RLU [19]: 0.9 fold and 1 fold and 1.1 fold; Fold of Basal RLU [20]: 0.9 fold and 1 fold; Fold of Basal RLU [21]: 1.1 and 0.9 and 1.3 and 0.7; Fold of Basal RLU [22]: 1.7 fold and 1.2 fold and 1.5 fold; Fold of Basal RLU [23]: 1.5 and 0.8 and 0.9 and 1.1
